Data from publication PMC11195807, “Development of a multi-targeted chemotherapeutic approach based on G-quadruplex stabilisation and carbonic anhydrase inhibition” (Journal of Enzyme Inhibition and Medicinal Chemistry, 2024).
“And” between values parts separate entries of the source, which are not always exact repeats. Identical values can stand only once.

Tests used:
Tel23 = assay: CD melting experiments, Tel23 GQ; type: binding, human; conditions: for ΔT1/2 Tel23: 2 molar equiv compound, T1/2 of DNA alone 53.5 °C; for ΔΔT1/2 Tel23: ΔT1/2 of compound minus ΔT1/2 of berberine, 2 molar equiv
hCA XII = molecular target: T1, hCA XII (Homo sapiens, UniProt O43570); assay: stopped-flow CO2 hydrase assay, hCA XII; type: biochemical; conditions: for Selectivity index (SI) I/XII: hCA XII over hCA I; for Selectivity index (SI) II/XII: hCA XII over hCA II; for Ki: mean ± SEM of three assays
T1 construct: made in house
T1 sequence (O43570 25-354): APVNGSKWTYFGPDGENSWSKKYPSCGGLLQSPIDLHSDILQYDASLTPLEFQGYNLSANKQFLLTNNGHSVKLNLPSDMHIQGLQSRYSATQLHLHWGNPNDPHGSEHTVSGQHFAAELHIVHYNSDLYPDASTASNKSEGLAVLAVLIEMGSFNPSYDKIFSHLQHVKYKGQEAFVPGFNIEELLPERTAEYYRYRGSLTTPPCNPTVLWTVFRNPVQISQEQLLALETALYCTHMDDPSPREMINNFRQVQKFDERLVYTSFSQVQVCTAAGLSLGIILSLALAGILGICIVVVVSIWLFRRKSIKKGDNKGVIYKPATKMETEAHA
From the text: (§1) An Applied Photophysics stopped-flow instrument has been used for assaying the CA-catalysed CO2 hydration activity, as reported earlier. […] All hCA isoforms were recombinant proteins, being obtained in-house as reported earlier.

F-c-Kit1-T GQ = assay: FRET melting competition experiments; type: binding; conditions: 2 molar equiv ligand; for ΔT1/2 F-c-Kit1-T + Hairpin (1:15): 15 molar equiv unlabelled Hairpin; for ΔT1/2 F-c-Kit1-T + Hairpin (1:50): 50 molar equiv unlabelled Hairpin; for ΔT1/2 F-c-Kit1-T: no competitor
From the text: FRET melting analysis was used to further estimate the GQ over duplex selectivity of the selected compounds[53]. The GQ-forming oligonucleotide c-Kit1 labelled with FAM and TAMRA (F-c-Kit1-T) was employed because, among the parallel GQs used in this study (c-Kit1 and c-Myc), it was the only one with a lower T1/2 than the hairpin DNA duplex competitor (Hairpin), thus allowing proper estimation of the GQ-stabilising properties of the ligands in the presence of a large excess of the unlabelled (non-fluorescent) competitor. […] The sulphonamide S-3,2 was also considered since the crystal structure of such MTDL in complex with Tel23 was successfully obtained. Results of these experiments (Figure S9, Supporting Information and Table 3) confirmed that these compounds are efficient GQ stabilisers.
Measurements were carried out on an FP-8300 spectrofluorometer equipped with a Peltier temperature controller system (PCT-818). The dual-labelled GQ-forming FAM-[d([…])]-TAMRA sequence (F-c-Kit1-T), supplied by biomers.net GmbH (Ulm, Germany), was used for the experiments without further purification. […] The experiments were carried out in sealed quartz cuvettes with a path length of 1 cm, by using 0.2 μM GQ-forming oligonucleotide without or with 0.4 μM of each compound, and the unlabelled competitor (Hairpin) at 0, 3, and 10 μM final concentrations. FRET melting experiments were performed in the range 15–90 °C, with 0.2 °C/min heating rate, by monitoring the emission of FAM at 520 nm (upon excitation at 492 nm). Both excitation and emission slits were set to 5 nm. The emission intensity of FAM was then normalised between 0 and 1. Fluorescence emission spectra were acquired before (at 15 °C) and after (at 90 °C) the melting assay, in the range 500–650 nm, with a 100 nm/s scan speed. Data analysis was performed using OriginPro 2021 software.

Hairpin = assay: CD melting experiments, hairpin DNA duplex; conditions: 2 molar equiv compound, T1/2 of DNA alone 66.0 °C
hCA IX = molecular target: T2, hCA IX (Homo sapiens, UniProt Q16790); assay: stopped-flow CO2 hydrase assay, hCA IX; type: biochemical; conditions: for Selectivity index (SI) I/IX: hCA IX over hCA I; for Selectivity index (SI) II/IX: hCA IX over hCA II; for Ki: mean ± SEM of three assays
T2 construct: made in house
From the text: as §1

c-Myc = assay: CD melting experiments, c-Myc GQ; type: binding; conditions: for ΔΔT1/2 c-Myc: ΔT1/2 of compound minus ΔT1/2 of berberine, 1 molar equiv; for ΔT1/2 c-Myc: 1 molar equiv compound, T1/2 of DNA alone 70.0 °C
c-Kit1 = assay: CD melting experiments, c-Kit1 GQ; type: binding; conditions: for ΔT1/2 c-Kit1: 2 molar equiv compound, T1/2 of DNA alone 55.0 °C; for ΔΔT1/2 c-Kit1: ΔT1/2 of compound minus ΔT1/2 of berberine, 2 molar equiv
[1] = sulphonamides, inhibitor-enzyme incubation 15 min
[2] = coumarins, inhibitor-enzyme incubation 6 h

SMILES	ΔT1/2 Tel23 (Tel23)	ΔΔT1/2 Tel23 (Tel23)	Selectivity index (SI) I/XII (hCA XII)	Selectivity index (SI) II/XII (hCA XII)	Ki (hCA XII; [1])	ΔT1/2 F-c-Kit1-T + Hairpin (1:15) (F-c-Kit1-T GQ)	ΔT1/2 F-c-Kit1-T + Hairpin (1:50) (F-c-Kit1-T GQ)	ΔT1/2 F-c-Kit1-T (F-c-Kit1-T GQ)	ΔT1/2 Hairpin (Hairpin)	Selectivity index (SI) I/IX (hCA IX)	Selectivity index (SI) II/IX (hCA IX)	Ki (hCA IX; [1])	ΔΔT1/2 c-Myc (c-Myc)	ΔT1/2 c-Kit1 (c-Kit1)	ΔΔT1/2 c-Kit1 (c-Kit1)	ΔT1/2 c-Myc (c-Myc)	Ki (hCA XII; [2])	Ki (hCA IX; [2])	further results
COc1ccc2cc3[n+](cc2c1OCCn1cc(-c2ccc(S(N)(=O)=O)cc2)nn1)CCc1cc2c(cc1-3)OCO2 [Compound 26, 10-Methoxy-9–(2-(4–(4-sulfamoylphenyl)-1H-1,2,3-triazol-1-yl)ethoxy)-5,6-dihydro-[1,3]dioxolo[4,5-g]isoquinolino[3,2-a]isoquinolin-7-ium hexafluorophosphate]	10.0 °C	0.5 °C	79.5	8.1	7.3 ± 0.5 nM	10.2 °C	12.4 °C	12.4 °C	-0.5 °C	414.6	42.4	1.1 nM and 1.4 nM	>13.0 °C	22.0 °C	9.0 °C				ΔΔT1/2 c-Myc (c-Myc; listed as S-2,0): > 13.0 °C; ΔΔT1/2 c-Kit1 (c-Kit1; listed as S-2,0): ≥ 6.0 °C
COc1ccc2cc3[n+](cc2c1OCCCn1cc(COc2ccc(S(N)(=O)=O)cc2)nn1)CCc1cc2c(cc1-3)OCO2 [Compound 29, 10-Methoxy-9–(3-(4-((4-sulfamoylphenoxy)methyl)-1H-1,2,3-triazol-1-yl)propoxy)-5,6-dihydro-[1,3]dioxolo[4,5-g]isoquinolino[3,2-a]isoquinolin-7-ium hexafluorophosphate]	8.0 °C	−1.5 °C	25.8	2.0	31.2 ± 2.5 nM	12.8 °C	13.2 °C	13.2 °C	-0.5 °C	1437	111.3	0.56 ± 0.03 nM	4.5 °C	16.0 °C	3.0 °C	16.5 °C			
COc1ccc2cc3[n+](cc2c1OCCCCn1cc(-c2ccc(S(N)(=O)=O)cc2)nn1)CCc1cc2c(cc1-3)OCO2 [Compound 30, 10-Methoxy-9–(4–(4-(4-sulfamoylphenyl)-1H-1,2,3-triazol-1-yl)butoxy)-5,6-dihydro-[1,3]dioxolo[4,5-g]isoquinolino[3,2-a]isoquinolin-7-ium hexafluorophosphate]	9.0 °C	−0.5 °C	23.2	2.2	25.5 ± 1.4 nM	13.8 °C	12.6 °C	13.6 °C	-1.0 °C	1209	112.4	0.49 ± 0.03 nM	>13.0 °C	20.5 °C	7.5 °C				ΔΔT1/2 c-Myc (c-Myc; listed as S-4,0): > 13.0 °C; ΔΔT1/2 c-Kit1 (c-Kit1; listed as S-4,0): ≥ 6.0 °C
COc1ccc2cc3[n+](cc2c1OCCCCCn1cc(-c2ccc(S(N)(=O)=O)cc2)nn1)CCc1cc2c(cc1-3)OCO2 [Compound 32, 10-Methoxy-9-((5–(4-(4-sulfamoylphenyl)-1H-1,2,3-triazol-1-yl)pentyl)oxy)-5,6-dihydro-[1,3]dioxolo[4,5-g]isoquinolino[3,2-a]isoquinolin-7-ium hexafluorophosphate]	12.0 °C	2.5 °C	31.3	0.9	18.3 ± 1 nM	15.0 °C	14.6 °C	14.4 °C	-1.0 °C	2390	65.8	0.24 ± 0.02 nM	1.0 °C	19.0 °C	6.0 °C	13.0 °C			ΔΔT1/2 c-Kit1 (c-Kit1; listed as S-5,0): ≥ 6.0 °C
COc1ccc2cc3[n+](cc2c1OCCCn1cc(COc2ccc4ccc(=O)oc4c2)nn1)CCc1cc2c(cc1-3)OCO2 [Compound 34, 10-Methoxy-9–(3-(4-(((2-oxo-2H-chromen-7-yl)oxy)methyl)-1H-1,2,3-triazol-1-yl)propoxy)-5,6-dihydro-[1,3]dioxolo[4,5-g]isoquinolino[3,2-a]isoquinolin-7-ium hexafluorophosphate]	10.5 °C	1.0 °C	> 332.2	> 332.2		11.4 °C	11.2 °C	10.6 °C	+1.0 °C				6.0 °C	20.0 °C	7.0 °C	18.0 °C	30.1 ± 1.5 nM	66 ± 4.3 nM	
COc1ccc2cc3[n+](cc2c1OCCCCn1cc(COc2ccc4ccc(=O)oc4c2)nn1)CCc1cc2c(cc1-3)OCO2 [Compound 37, 10-Methoxy-9–(4-(4-(((2-oxo-2H-chromen-7-yl)oxy)methyl)-1H-1,2,3-triazol-1-yl)butoxy)-5,6-dihydro-[1,3]dioxolo[4,5-g]isoquinolino[3,2-a]isoquinolin-7-ium hexafluorophosphate]	9.0 °C	−0.5 °C	> 1190	> 1190		12.8 °C	12.6 °C	12.0 °C	+0.5 °C	> 578.0	> 578.0		1.0 °C	17.5 °C	4.5 °C	13.0 °C	8.4 ± 0.5 nM	17.3 ± 1.2 nM	
